Data taken from PubChem BioAssay AID1996.
≈ marks a conversion by molar mass, not a printed value.

details: buffer; pH 7.4; 200.0 µM

Going from `Nc1nc(NCc2ccco2)nc(Nc2ccccc2)c1[N+](=O)[O-]` to `Nc1nc(NC2CCCCC2)nc(NCCO)c1[N+](=O)[O-]`, the solubility kinetic rises from 0.4 µg/mL (≈ 1.23 µM) to 38.1 µg/mL (≈ 129 µM) (95-fold).

`COc1ccc(NS(=O)(=O)c2ccc3c(c2)CCC(=O)N3)cc1O` and `CCOc1ccc(S(=O)(=O)Nc2cnc3ccccc3c2)cc1` cannot be ordered by solubility kinetic: over 52.3 µg/mL for the first, over 49.3 µg/mL for the second.

First: Cc1ccc(NC(=O)Cc2ccc(-c3ccccc3)cc2)nc1
Second: O=C(NCc1ccccc1)c1ccc2c(c1)C(=O)N(Cc1cccnc1)C2=O
The solubility kinetic of the first is 6.7-fold lower: 5.7 µg/mL (≈ 18.9 µM) for the first, 38.1 µg/mL (≈ 103 µM) for the second.

`COc1ccc(OCCn2ccnc2C)cc1.O=C(O)C(=O)O` and `CCOc1ccc(/C=C2\SC(=S)N(CCC(=O)O)C2=O)cc1` are within 1.5-fold of each other in solubility kinetic: 41.7 µg/mL for the first, 40.9 µg/mL (≈ 121 µM) for the second.

First: CC1CN(C(=O)COC(=O)/C=C/c2cccc([N+](=O)[O-])c2)CC(C)O1 (centres undefined)
Second: Cc1ccc(S(=O)(=O)NCC(=O)OCC(=O)N2C(C)CCCC2C)cc1 (centres undefined)
The solubility kinetic of the first is 1.6-fold lower: 34.2 µg/mL (≈ 98.2 µM) for the first, 53.9 µg/mL (≈ 141 µM) for the second.

First: CN(C(=O)COC(=O)c1cc(=O)[nH]c2ccccc12)c1ccccc1
Second: CC1(c2ccc3ccccc3c2)NC(=O)N(CC(=O)O)C1=O (centres undefined)
The solubility kinetic of the first is lower: 11.6 µg/mL (≈ 34.5 µM) for the first, over 44.7 µg/mL for the second.

First: COc1ccccc1C(=O)NC1CCN(C(=O)Nc2ccc(C)cc2)CC1
Second: Cc1ccc(C(=O)Oc2ccccc2N2CCOCC2)cc1
The solubility kinetic of the first is 9.6-fold higher: 46.8 µg/mL (≈ 127 µM) for the first, 4.9 µg/mL (≈ 16.5 µM) for the second.

Compared with `CCS(=O)(=O)N1CCC(C(=O)Oc2ccccc2Cl)CC1`, `CN(C)c1ccc(S(=O)(=O)N2CCC(Cc3ccccc3)CC2)cn1` is 23-fold lower in solubility kinetic: 46 µg/mL (≈ 139 µM) for the first, 2 µg/mL (≈ 5.56 µM) for the second.

First: O=C(CNS(=O)(=O)c1cccc(C(F)(F)F)c1)NC1CCCCCC1
Second: O=C(NC(=S)NC1CCCCC1)c1ccccc1
The solubility kinetic of the first is 5.7-fold higher: 48.7 µg/mL (≈ 129 µM) for the first, 8.5 µg/mL (≈ 32.4 µM) for the second.

Going from `O=S(=O)(Nc1ccc(Cl)cc1)c1cccc2nsnc12` to `Cc1cccc(N/C=C/C(=O)c2ccc(Cl)cc2)c1`, the solubility kinetic falls from over 48.9 µg/mL to under 0.6 µg/mL.

Going from `CC(C)(C)c1ccc(CN2C(=O)c3ccccc3S2(=O)=O)cc1` to `CN(C(=O)CN1C(=O)c2ccccc2S1(=O)=O)C1CCCCC1`, the solubility kinetic rises from 1.2 µg/mL (≈ 3.64 µM) to over 50.5 µg/mL.

`CCc1cc(=O)[nH]c(SCC(=O)N2CCCC2)n1` and `O=c1cc(O)c2sc3nc(C(F)(F)F)c4c(c3c2[nH]1)CCCCC4` cannot be ordered by solubility kinetic: over 40.1 µg/mL for the first, over 53.2 µg/mL for the second.

Compared with `Cc1cccc(C)c1N1CCN(C(=O)N2CCOCC2)CC1`, `Cc1ccccc1NC(=S)N1CCN(c2ccccc2)CC1` is lower in solubility kinetic: over 45.5 µg/mL for the first, 0.6 µg/mL (≈ 1.93 µM) for the second.

First: COC(=O)c1sc(NC(=O)c2c(-c3ccccc3)noc2C)nc1C
Second: Cc1ccccc1NC(=O)COC(=O)c1cc(C)n(C2CC2)c1C
The solubility kinetic of the first is 7-fold lower: 0.8 µg/mL (≈ 2.24 µM) for the first, 5.6 µg/mL (≈ 17.2 µM) for the second.

Compared with `Cc1ccccc1C(=O)Nc1c(C)[nH]c(=O)[nH]c1=O`, `Cc1ccc(C(=O)Nc2cc3[nH]c(=O)oc3cc2C)cc1` is lower in solubility kinetic: over 38.9 µg/mL for the first, 4.8 µg/mL (≈ 17 µM) for the second.

Compared with `O=S(=O)(Nc1ccncc1Cl)c1ccc2ccccc2c1`, `Nc1cc(=O)n(Cc2ccccc2)c(=O)n1-c1ccc(F)cc1` is higher in solubility kinetic: 42.3 µg/mL (≈ 133 µM) for the first, over 46.7 µg/mL for the second.

First: Cc1ccc(C(=O)OCC(=O)NC(=O)c2cccn2C)cc1[N+](=O)[O-]
Second: CCOC(=O)c1ccc(NS(=O)(=O)c2cn(C)cn2)cc1
The solubility kinetic of the first is lower: 1.3 µg/mL (≈ 3.76 µM) for the first, over 46.4 µg/mL for the second.

Going from `O=C(Nc1cc(S(=O)(=O)N2CCOCC2)ccc1Cl)c1cc([N+](=O)[O-])ccc1Cl` to `O=C(O)c1ccc(N2C(=O)CSC2c2cccc([N+](=O)[O-])c2)cc1` (centres undefined), the solubility kinetic rises from 2.8 µg/mL (≈ 6.08 µM) to over 51.7 µg/mL.

First: CC1CC1C(=O)Nc1nc2ccc(Cl)cc2s1 (centres undefined)
Second: Cc1cnc(NC(=O)c2ccc3ncsc3c2)s1
The solubility kinetic of the first is 5.8-fold lower: 0.6 µg/mL (≈ 2.25 µM) for the first, 3.5 µg/mL (≈ 12.7 µM) for the second.

Going from `Cc1cccc(C)c1OCC(O)CN1CCc2ccccc2C1.Cl` (centres undefined) to `O=C(CSc1ccccc1F)Nc1ccc2c(c1)OCO2`, the solubility kinetic falls from over 52.2 µg/mL to 45.4 µg/mL (≈ 149 µM).

`CCOC(=O)CC1C(=O)NCCN1C(=O)c1ccc(Cl)cc1` (centres undefined) and `CCOC(=O)NC(=O)CN1C(=O)NC2(CCc3ccccc32)C1=O` (centres undefined) cannot be ordered by solubility kinetic: over 48.7 µg/mL for the first, over 49.7 µg/mL for the second.

`NC(=O)C1CCN(C(=O)/C(=C/c2ccco2)NC(=O)c2ccccc2)CC1` and `Nc1cccc(C(=O)NCCNC(=O)c2cccc(N)c2)c1` cannot be ordered by solubility kinetic: over 55.1 µg/mL for the first, over 44.8 µg/mL for the second.

Going from `Cc1cccn2cc(CCNS(=O)(=O)c3cccs3)nc12` to `CCn1c(SCC(=O)Nc2nccc(C)n2)nc2ccccc21`, the solubility kinetic rises from 45.6 µg/mL (≈ 142 µM) to over 49.1 µg/mL.

`CCn1c(=O)ccc2cc([N+](=O)[O-])ccc21` and `CCOc1c(Nc2cccc(Cl)c2)c(=O)c1=O` cannot be ordered by solubility kinetic: over 32.7 µg/mL for the first, over 37.8 µg/mL for the second.

Going from `CC(=O)Nc1cc2c3c(c1)CCN3C(=O)CC2` to `CCN(CC)CCNC(=O)c1ccc(-n2c(C)cc3c2CCCC3=O)cc1`, the solubility kinetic falls from over 34.5 µg/mL to 33.7 µg/mL (≈ 91.7 µM).

Compared with `O=C(COC(=O)C1CC2C=CC1C2)Nc1c(Br)cc([N+](=O)[O-])cc1Br` (centres undefined), `COc1ccc(CCNC(=O)COC(=O)/C=C/c2ccc3c(c2)OCO3)cc1OC` is 4.5-fold lower in solubility kinetic: 57.2 µg/mL (≈ 121 µM) for the first, 12.7 µg/mL (≈ 30.7 µM) for the second.

Going from `Cn1c(=O)c(C(N)=S)cn(-c2ccccc2)c1=O` to `COc1cccc(CNC(=O)N[C@@H](C)C(=O)O)c1`, the solubility kinetic rises from 25.5 µg/mL (≈ 97.6 µM) to over 37.8 µg/mL.

Going from `COc1cccc2cc(C(C)OC(=O)Nc3ccc(C)cc3)oc12` (centres undefined) to `O=C(NCC1CCCCC1)c1cccc(Br)c1`, the solubility kinetic rises from under 0.7 µg/mL to 2.2 µg/mL (≈ 7.43 µM).

Compared with `CC1CC(NC2=NCCS2)CC(C)(C)C1` (centres undefined), `C=CC[N+]1(C)C2CCC1CC(O)C2.[Br-]` (centres undefined) is higher in solubility kinetic: 24.6 µg/mL (≈ 109 µM) for the first, over 39.3 µg/mL for the second.

Compound `CN(C)C(=S)Nc1ccc(Br)cc1Cl` has a solubility kinetic of 23.4 µg/mL (≈ 79.7 µM).
